Test results from PubChem BioAssay AID1918999 (Molecular Pharmacology Branch, DTP, NCI, 2023).
Each block holds one compound with its values, some of them ahead of it.

Tested on: 556581-035-R-J1-PDC complex spheroid growth
Experiment: Anticancer human tumor 556581-035-R-J1-PDC patient-derived ovarian carcinoma cell line growth inhibition [AhR]
Conditions: for IC50: curve of first compound; for viability, T/C: stronger effect = lower value
How it was run: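 Agents were dosed in half-log steps down from roughly clinical Cmax, or from 10 microM where Cmax was unknown, alone and with AhR antagonists. Read-out: percent test/control growth of tumor spheroids containing HUVEC and MSC stromal cells.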

[1] = second compound 0.1 µM, first compound 0.000316 µM
[2] = second compound 0.1 µM, first compound 0.001 µM
[3] = second compound 0.1 µM, first compound 0.00316 µM
[4] = second compound 0.1 µM, first compound 0.01 µM
[5] = second compound 0.1 µM, first compound 0.0316 µM
[6] = second compound 0.1 µM, first compound 0.1 µM
[7] = second compound 0.316 µM, first compound 0.000316 µM
[8] = second compound 0.316 µM, first compound 0.001 µM
[9] = second compound 0.316 µM, first compound 0.00316 µM
[10] = second compound 0.316 µM, first compound 0.01 µM
[11] = second compound 0.316 µM, first compound 0.0316 µM
[12] = second compound 0.316 µM, first compound 0.1 µM
[13] = second compound 1 µM, first compound 0.000316 µM
[14] = second compound 1 µM, first compound 0.001 µM
[15] = second compound 1 µM, first compound 0.00316 µM
[16] = second compound 1 µM, first compound 0.01 µM
[17] = second compound 1 µM, first compound 0.0316 µM
[18] = second compound 1 µM, first compound 0.1 µM
[19] = second compound 3.16 µM, first compound 0.000316 µM
[20] = second compound 3.16 µM, first compound 0.001 µM
[21] = second compound 3.16 µM, first compound 0.00316 µM
[22] = second compound 3.16 µM, first compound 0.01 µM
[23] = second compound 3.16 µM, first compound 0.0316 µM
[24] = second compound 3.16 µM, first compound 0.1 µM
[25] = second compound 10 µM, first compound 0.000316 µM
[26] = second compound 10 µM, first compound 0.001 µM
[27] = second compound 10 µM, first compound 0.00316 µM
[28] = second compound 10 µM, first compound 0.01 µM
[29] = second compound 10 µM, first compound 0.0316 µM
[30] = second compound 10 µM, first compound 0.1 µM
[31] = second compound 0.1 µM, first compound 0.316 µM
[32] = second compound 0.1 µM, first compound 1 µM
[33] = second compound 0.1 µM, first compound 3.16 µM
[34] = second compound 0.1 µM, first compound 10 µM
[35] = second compound 0.316 µM, first compound 0.316 µM
[36] = second compound 0.316 µM, first compound 1 µM
[37] = second compound 0.316 µM, first compound 3.16 µM
[38] = second compound 0.316 µM, first compound 10 µM
[39] = second compound 1 µM, first compound 0.316 µM
[40] = second compound 1 µM, first compound 1 µM
[41] = second compound 1 µM, first compound 3.16 µM
[42] = second compound 1 µM, first compound 10 µM
[43] = second compound 3.16 µM, first compound 0.316 µM
[44] = second compound 3.16 µM, first compound 1 µM
[45] = second compound 3.16 µM, first compound 3.16 µM
[46] = second compound 3.16 µM, first compound 10 µM
[47] = second compound 10 µM, first compound 0.316 µM
[48] = second compound 10 µM, first compound 1 µM
[49] = second compound 10 µM, first compound 3.16 µM
[50] = second compound 10 µM, first compound 10 µM
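Throughout, for viability, T/C: compound exposure lasted 7 days; 100% = DMSO vehicle control growth.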

Structure (SMILES): COc1cccc2c1C(=O)c1c(O)c3c(c(O)c1C2=O)CC(O)(C(=O)CO)CC3OC1CC(N)C(O)C(C)O1 (stereo not given) + Cc1ccccc1N=Nc1ccc(NC(=O)c2ccnn2C)c(C)c1
IC50 (second compound 0.1 µM): 423 nM
IC50 (second compound 0.316 µM): 416 nM
IC50 (second compound 1 µM): 519 nM
IC50 (second compound 3.16 µM): 489 nM
IC50 (second compound 10 µM): 493 nM
viability, T/C [5]: 83.7%
viability, T/C [6]: 78%
viability, T/C [31]: 60.2%
viability, T/C [32]: 20.7%
viability, T/C [33]: 2.13%
viability, T/C [34]: 2.2%
viability, T/C [11]: 82.7%
viability, T/C [12]: 77.9%
viability, T/C [35]: 59.9%
viability, T/C [36]: 19.2%
viability, T/C [37]: 3.1%
viability, T/C [38]: 3.13%
viability, T/C [17]: 85.7%
viability, T/C [18]: 93.8%
viability, T/C [39]: 70.9%
viability, T/C [40]: 21.4%
viability, T/C [41]: 3.42%
viability, T/C [42]: 2.49%
viability, T/C [23]: 83.2%
viability, T/C [24]: 79.9%
viability, T/C [43]: 68.3%
viability, T/C [44]: 20.1%
viability, T/C [45]: 4.16%
viability, T/C [46]: 1.64%
viability, T/C [29]: 79.2%
viability, T/C [30]: 85.7%
viability, T/C [47]: 70.2%
viability, T/C [48]: 17.2%
viability, T/C [49]: 2.04%
viability, T/C [50]: 2.28%

Structure (SMILES): COc1cccc2c1C(=O)c1c(O)c3c(c(O)c1C2=O)CC(O)(C(=O)CO)CC3OC1CC(N)C(O)C(C)O1 (stereo not given) + Cc1cncc(-c2nc(NCCc3c[nH]c4ccccc34)c3ncn(C(C)C)c3n2)c1
IC50 (second compound 0.1 µM): 382 nM
IC50 (second compound 0.316 µM): 380 nM
IC50 (second compound 1 µM): 403 nM
IC50 (second compound 3.16 µM): 349 nM
IC50 (second compound 10 µM): 351 nM
viability, T/C [5]: 87%
viability, T/C [6]: 89.8%
viability, T/C [31]: 58.3%
viability, T/C [32]: 6.64%
viability, T/C [33]: 0.94%
viability, T/C [34]: 1.6%
viability, T/C [11]: 84.8%
viability, T/C [12]: 82.5%
viability, T/C [35]: 58.3%
viability, T/C [36]: 6.48%
viability, T/C [37]: 0.61%
viability, T/C [38]: 2.51%
viability, T/C [17]: 81.9%
viability, T/C [18]: 73.8%
viability, T/C [39]: 62.9%
viability, T/C [40]: 3.27%
viability, T/C [41]: 0.86%
viability, T/C [42]: 2.01%
viability, T/C [23]: 77.7%
viability, T/C [24]: 74.8%
viability, T/C [43]: 54.4%
viability, T/C [44]: 2.38%
viability, T/C [45]: 1.27%
viability, T/C [46]: 3.59%
viability, T/C [29]: 80.8%
viability, T/C [30]: 68.8%
viability, T/C [47]: 54.8%
viability, T/C [48]: 2.24%
viability, T/C [49]: 1.87%
viability, T/C [50]: 3.7%

Structure (SMILES): Nc1ccccc1NC(=O)c1ccc(CNC(=O)OCc2cccnc2)cc1 + Cc1cncc(-c2nc(NCCc3c[nH]c4ccccc34)c3ncn(C(C)C)c3n2)c1
IC50 (second compound 0.1 µM): 2770 nM
IC50 (second compound 0.316 µM): 2420 nM
IC50 (second compound 1 µM): 2530 nM
IC50 (second compound 3.16 µM): 1940 nM
IC50 (second compound 10 µM): 791 nM
viability, T/C [5]: 106%
viability, T/C [6]: 100%
viability, T/C [31]: 93.7%
viability, T/C [32]: 76.3%
viability, T/C [33]: 46.2%
viability, T/C [34]: 19.3%
viability, T/C [11]: 107%
viability, T/C [12]: 121%
viability, T/C [35]: 102%
viability, T/C [36]: 78.5%
viability, T/C [37]: 42%
viability, T/C [38]: 19.7%
viability, T/C [17]: 108%
viability, T/C [18]: 107%
viability, T/C [39]: 89.5%
viability, T/C [40]: 77%
viability, T/C [41]: 42.2%
viability, T/C [42]: 22.2%
viability, T/C [23]: 93%
viability, T/C [24]: 99.2%
viability, T/C [43]: 98.7%
viability, T/C [44]: 67%
viability, T/C [45]: 37.6%
viability, T/C [46]: 18.1%
viability, T/C [29]: 79%
viability, T/C [30]: 87%
viability, T/C [47]: 64.5%
viability, T/C [48]: 47.1%
viability, T/C [49]: 22.8%
viability, T/C [50]: 14.7%

Now from value to compound, other results behind:

IC50 (second compound 0.1 µM): > 100 nM
IC50 (second compound 0.316 µM): > 100 nM
IC50 (second compound 1 µM): > 100 nM
IC50 (second compound 3.16 µM): > 100 nM
IC50 (second compound 10 µM): > 100 nM
Structure (SMILES): Cn1ncnc1C1c2n[nH]c(=O)c3cc(F)cc(c23)NC1c1ccc(F)cc1 (stereo not given) + Cc1ccccc1N=Nc1ccc(NC(=O)c2ccnn2C)c(C)c1
viability, T/C [1]: 102%
viability, T/C [2]: 112%
viability, T/C [3]: 103%
viability, T/C [4]: 105%
viability, T/C [5]: 94.9%
viability, T/C [6]: 97.4%
viability, T/C [7]: 112%
viability, T/C [8]: 114%
viability, T/C [9]: 113%
viability, T/C [10]: 103%
viability, T/C [11]: 104%
viability, T/C [12]: 94.3%
viability, T/C [13]: 116%
viability, T/C [14]: 99.6%
viability, T/C [15]: 109%
viability, T/C [16]: 100%
viability, T/C [17]: 97.8%
viability, T/C [18]: 105%
viability, T/C [19]: 110%
viability, T/C [20]: 101%
viability, T/C [21]: 94.6%
viability, T/C [22]: 96.5%
viability, T/C [23]: 104%
viability, T/C [24]: 111%
viability, T/C [25]: 92.2%
viability, T/C [26]: 108%
viability, T/C [27]: 89.8%
viability, T/C [28]: 98.8%
viability, T/C [29]: 93.8%
viability, T/C [30]: 92.3%

IC50 (second compound 0.1 µM): > 100 nM
IC50 (second compound 0.316 µM): > 100 nM
IC50 (second compound 1 µM): > 100 nM
IC50 (second compound 3.16 µM): > 100 nM
IC50 (second compound 10 µM): > 100 nM
Structure (SMILES): Cn1ncnc1C1c2n[nH]c(=O)c3cc(F)cc(c23)NC1c1ccc(F)cc1 (stereo not given) + Cc1cncc(-c2nc(NCCc3c[nH]c4ccccc34)c3ncn(C(C)C)c3n2)c1
viability, T/C [1]: 105%
viability, T/C [2]: 102%
viability, T/C [3]: 95.1%
viability, T/C [4]: 110%
viability, T/C [5]: 92.4%
viability, T/C [6]: 90.3%
viability, T/C [7]: 99.2%
viability, T/C [8]: 99.3%
viability, T/C [9]: 101%
viability, T/C [10]: 89.8%
viability, T/C [11]: 86.9%
viability, T/C [12]: 86.6%
viability, T/C [13]: 96.1%
viability, T/C [14]: 104%
viability, T/C [15]: 102%
viability, T/C [16]: 102%
viability, T/C [17]: 103%
viability, T/C [18]: 98.6%
viability, T/C [19]: 90.6%
viability, T/C [20]: 107%
viability, T/C [21]: 97.7%
viability, T/C [22]: 91.8%
viability, T/C [23]: 85.2%
viability, T/C [24]: 101%
viability, T/C [25]: 87.2%
viability, T/C [26]: 83.4%
viability, T/C [27]: 92%
viability, T/C [28]: 85.7%
viability, T/C [29]: 89.9%
viability, T/C [30]: 79.1%

IC50 (second compound 0.1 µM): 894 nM
IC50 (second compound 0.316 µM): > 1000 nM
IC50 (second compound 1 µM): > 1000 nM
IC50 (second compound 3.16 µM): 752 nM
IC50 (second compound 10 µM): 883 nM
Structure (SMILES): CC1COCCN1c1cc(-c2ccnn2C)c2ccnc(-c3ccn[nH]3)c2n1 (stereo not given) + Cc1ccccc1N=Nc1ccc(NC(=O)c2ccnn2C)c(C)c1
viability, T/C [3]: 104%
viability, T/C [4]: 103%
viability, T/C [5]: 101%
viability, T/C [6]: 84.8%
viability, T/C [31]: 61.5%
viability, T/C [32]: 48.6%
viability, T/C [9]: 102%
viability, T/C [10]: 119%
viability, T/C [11]: 101%
viability, T/C [12]: 76.8%
viability, T/C [35]: 63.9%
viability, T/C [36]: 51.8%
viability, T/C [15]: 99.6%
viability, T/C [16]: 108%
viability, T/C [17]: 99.5%
viability, T/C [18]: 80%
viability, T/C [39]: 62.6%
viability, T/C [40]: 54.9%
viability, T/C [21]: 105%
viability, T/C [22]: 103%
viability, T/C [23]: 94.8%
viability, T/C [24]: 72.6%
viability, T/C [43]: 63.8%
viability, T/C [44]: 45.4%
viability, T/C [27]: 88.9%
viability, T/C [28]: 104%
viability, T/C [29]: 85.3%
viability, T/C [30]: 73.3%
viability, T/C [47]: 61%
viability, T/C [48]: 47.9%
